Results published in US5446020A (Scios Nova Inc., priority 1993, dated 1995).

Tests used:
[1] = of the potency of native insulin; cited from earlier work
[2] = cited from earlier work
[3] = in vivo; cited from earlier work
rats = assay: euglycemic, hyperinsulinemic clamp with 3H-glucose tracer; assay type: in vivo; details: rat clamp
Method: Analogs of the invention can be tested in a euglycemic, hyperinsulinemic rat clamp using ^3 H-glucose as a tracer. In accordance with this technique, glucose is infused to maintain euglycemia. […] Using ^3 H-glucose, glucose utilization by the periphery (Rd) and glucose production by the liver (HGO) can be calculated under steady state conditions using the equation of Steel et al., Am. J. Physiol. (1956) 187:15-24, incorporated herein by reference.
Analogs were tested using the euglycemic, hyperinsulinemic clamp method. […] The exogenous glucose was infused at a rate sufficient to maintain euglycemia for the duration of the experiment. Additionally, [D-3-^3 H] glucose (tracer) is infused to assess glucose metabolism (i.e, glucose turnover). The steady state equation of Steele et al. (Am. J. Physiol. (1956) 187:15-241) was used to calculate hepatic glucose output and the rate of glucose disposal. Under steady state conditions, glucose (mg/ml) and ^3 H-glucose (dpm/ml) levels are constant. Under these conditions the rate of glucose appearance (Ra)=rate of glucose disappearance (Rd). At steady state Ra =Rd. Ra is further defined as the rate of glucose entering the glucose pool (approximately the blood volume and other extra-cellular volume). Ra is equal to the rate at which the liver is making glucose plus the rate of any exogenous glucose infusion. Rd is equal to the rate of glucose leaving the pool.
Three main parameters are used to assess the effects of the analogs. The rate of exogenous infusion (i.e., glucose infusion rate, GIR or M) estimates the potency of analog. […] Finally, hepatic glucose output (HGO), reflects the ability of the analogs to suppress the liver's production of glucose.
Four to five days prior to experimentation, 65 mg/kg of sodium pentobarbital was administered intraperitoneally to anesthetize rats. Catheters were inserted in the right jugular vein and left carotid artery. The catheters were routed subcutaneously to the dorsal region of the neck and exteriorized. […] Blood samples were taken from the jugular vein. […] At 10 minute intervals after starting hormone infusion, 50 μl blood samples were taken to determine the plasma glucose level. During infusion of hormone, a 30% glucose solution was infused at an empirically determined rate to maintain the basal glucose level.
Aliquots of whole blood were obtained at -20, -10 and 0 minutes before the clamp was started, and later at 70, 80, and 90 minutes into the clamp and the plasma glucose level determined. Glucose specific activity at these times was also determined as follows: [formula]
The blood was deproteinized with 10% TCA, centrifuged, and an aliquot of supernatant dried in a vacuum oven to evaporate off ^3 H2 O. The ^3 H-glucose levels in the sample were determined using a liquid scintillation counter. Basal Ra (glucose appearance rate) and clamp Ra were calculated by using steady state glucose specific activity (basal: -20, -10 and 0 minutes; clamp: 70, 80, 90 minutes) and the following equation: [formula] Under basal conditions, at steady state, Ra =Rd and Ra hepatic glucose output. Under clamp conditions, at a steady state, Ra =Rd, however under these conditions, Ra =hepatic glucose output plus exogenous glucose infusion rate. Hepatic glucose output under clamp conditions was determined by subtracting the glucose infusion rate from the calculated Rd.

Substance | potency relative to native insulin when assayed in vitro [1] | potency relative to insulin in vivo ([2]; of the potency of insulin) | in vivo hepatoselectivity, more than that of insulin ([2]; relative to insulin per se) [%] | circulating half-life [3] [min] | GIR (glucose infusion rate) (rats; infusion 41.5 ng/kg/min) [mg/kg/min] | HGO (hepatic glucose output) (rats; infusion 41.5 ng/kg/min) [mg/kg/min] | Rd (rate of glucose disappearance) (rats; infusion 41.5 ng/kg/min) [mg/kg/min] | GIR (glucose infusion rate) (rats; infusion 83 ng/kg/min) [mg/kg/min] | GIR (glucose infusion rate) (rats; infusion 100 ng/kg/min) [mg/kg/min] | HGO (hepatic glucose output) (rats; infusion 100 ng/kg/min) [mg/kg/min] | Rd (rate of glucose disappearance) (rats; infusion 100 ng/kg/min) [mg/kg/min] | GIR (glucose infusion rate) (rats; infusion 166 ng/kg/min) [mg/kg/min] | HGO (hepatic glucose output) (rats; infusion 166 ng/kg/min) [mg/kg/min] | Rd (rate of glucose disappearance) (rats; infusion 166 ng/kg/min) [mg/kg/min] | GIR (glucose infusion rate) (rats; infusion 415 ng/kg/min) [mg/kg/min] | HGO (hepatic glucose output) (rats; infusion 415 ng/kg/min) [mg/kg/min] | Rd (rate of glucose disappearance) (rats; infusion 415 ng/kg/min) [mg/kg/min]
Proinsulin: single chain peptide precursor of insulin synthesized in the islets of Langerhans | 1-2% | about 15% | 50 | 30 | – | – | – | – | – | – | – | – | – | – | – | – | –
Insulin: insulin, the comparator hormone infused in the rat clamp | – | – | – | 4 | 1.7 ± 0.6 | 11.3 ± 0.3 | 13.0 ± 0.3 | 6.9 ± 0.8 | 8.8 ± 1.2 | 9.1 ± 0.7 | 17.8 ± 1.0 | 19.7 ± 0.5 | 6.4 ± 1.1 | 26.1 ± 0.8 | 30.8 ± 1.7 | 3.5 ± 0.7 | 34.3 ± 1.6
